Experimental data taken from patent US5885814A, “Vaccine containing a serine protease” (priority 1993, dated 1999).
Like-named read-outs stand apart in the source and are kept apart here. Square brackets hold non-standard residues; d marks the D form. Peptide text beside a SMILES is read from it. * marks the point of attachment. Sta = CC(C)C[C@H](N)[C@@H](O)CC(=O)O; Isovaleryl = CC(C)CC(=O)*

Tests used:
[1] = test system: DPP-like protease from F. hepatica E/S products; format: biochemical, Fasciola hepatica
Procedure: The assay mixture contained 200 μl of 20 μM substrate, 100 μl of enzyme solution and 900 μl of 50 mM Hepes, pH 6.8. The reaction was allowed to proceed at 37° C. and stopped by the addition of 200 μl of 1.7M acetic acid. The liberated AMC was measured in a fluorometer with excitation and emission wavelengths of 370 nm and 440 nm, respectively.
The effect of various metal ions on the hydrolytic activity of the enzyme was examined using both gly-pro-AMC and lys-ala-AMC as substrates in assays as described above.

Mammalian DPP4 = details: J. Biol. Chem. 263 (1988), 6613-6618; cited from earlier work
Mammalian DPP2 = details: J. Biol. Chem. 263 (1988), 6613-6618; cited from earlier work
[2] = concentration of 5 mM, gly-pro-AMC and lys-ala-AMC as substrates
[3] = substance 1 mM, substrate Gly-Pro-AMC
[4] = substance 1 mM, substrate Lys-Ala-AMC
[5] = substance 5 mM, substrate Gly-Pro-AMC
[6] = substance 5 mM, substrate Lys-Ala-AMC
[7] = gly-pro-AMC and lys-ala-AMC as substrates
[8] = substance 0.5 mM, substrate Gly-Pro-AMC
[9] = substance 0.5 mM, substrate Lys-Ala-AMC
[10] = substance 0.02 mM, substrate Gly-Pro-AMC
[11] = substance 0.02 mM, substrate Lys-Ala-AMC
[12] = substance 0.1 mM, substrate Gly-Pro-AMC
[13] = substance 0.1 mM, substrate Lys-Ala-AMC
[14] = substance 5 μg/ml, substrate Gly-Pro-AMC
[15] = substance 5 μg/ml, substrate Lys-Ala-AMC

Compound	Activity remaining (%) Gly-Pro [1, 3] [%]	Activity remaining (%) Lys-Ala [1, 4] [%]	Activity remaining (%) Gly-Pro [1, 5] [%]	effect on enzyme activity (in words) [1, 7]	Activity remaining (%) Gly-Pro [1, 8] [%]	Activity remaining (%) Lys-Ala [1, 9] [%]	also measured
[Fe] [Fe, iron]	6	5	2				inhibition of enzyme activity [1, 2]: > 90%; Activity remaining (%) Lys-Ala [1, 6]: 2%
[Ca+2] [Ca, calcium]	57	62		little effect on enzyme activity	133	96	
[Co] [Co, cobalt]	20	28	4				inhibition of enzyme activity [1, 2]: > 90%; Activity remaining (%) Lys-Ala [1, 6]: 6%
[Pb] [Pb, lead]	109	103	70				Activity remaining (%) Lys-Ala [1, 6]: 82%
[Mg+2] [Mg, magnesium]	78	76		little effect on enzyme activity	116	105	
OCCS [2-Mercaptoethanol]	87	75					activation of the enzyme by thiol activating agents [1]: no activation
bacitracin				neither showed any inhibitory effect			Activity remaining (%) Gly-Pro [1, 10]: 100%; Activity remaining (%) Lys-Ala [1, 11]: 100%; Activity remaining (%) Gly-Pro [1, 12]: 100%; Activity remaining (%) Lys-Ala [1, 13]: 100%; inhibition of mammalian DPP4 (Mammalian DPP4): inhibits DPP4 only
aprotinin				not inhibited			Activity remaining (%) Gly-Pro [1, 14]: 109%; Activity remaining (%) Lys-Ala [1, 15]: 116%
CC(C)CC(=O)N[C@H](C(=O)N[C@H](C(=O)N[C@@H](CC(C)C)[C@@H](O)CC(=O)N[C@@H](C)C(=O)N[C@@H](CC(C)C)[C@@H](O)CC(=O)O)C(C)C)C(C)C [Pepstatin] (Isovaleryl-VV[Sta]A[Sta]-OH)				not inhibited			Activity remaining (%) Gly-Pro [1, 14]: 108%; Activity remaining (%) Lys-Ala [1, 15]: 92%
N[C@@H](CS)C(=O)O [Cysteine, cysteine]	104	105			104	112	activation of the enzyme by thiol activating agents [1]: no activation
[Zn] [Zn, zinc]	3	14			80	37	inhibition of enzyme activity ([1]; 1 mM concentration, gly-pro-AMC and lys-ala-AMC as substrates): > 85%
O=C(O)CN(CCN(CC(=O)O)CC(=O)O)CC(=O)O [EDTA]							effect on enzyme activity (in words) [1]: not inhibited; Activity remaining (%) Gly-Pro ([1]; pH 6.8, 2000 µM): 108%; Activity remaining (%) Lys-Ala ([1]; pH 6.8, 2000 µM): 121%
[Mn+2] [Mn, manganese]	66	66		little effect on enzyme activity	102	104	
O[C@H](CS)[C@H](O)CS (racemic) [DTT, dithiothreitol]	90	62			77	61	activation of the enzyme by thiol activating agents [1]: no activation
O=S(=O)(F)Cc1ccccc1 [PMSF, phenylmethyl sulfonyl fluoride]				inhibited			Activity remaining (%) Gly-Pro ([1]; substance 2 mM, substrate Gly-Pro-AMC): 2%; Activity remaining (%) Lys-Ala ([1]; substance 2 mM, substrate Lys-Ala-AMC): 3%
COc1ccc(C[C@H](N)C(=O)N[C@H]2[C@@H](O)[C@H](n3cnc4c(N(C)C)ncnc43)O[C@@H]2CO)cc1 [Puromycin, puromycin]				neither showed any inhibitory effect			Activity remaining (%) Gly-Pro [1, 10]: 100%; Activity remaining (%) Lys-Ala [1, 11]: 100%; Activity remaining (%) Gly-Pro [1, 12]: 100%; Activity remaining (%) Lys-Ala [1, 13]: 100%; inhibition of mammalian DPP2 (Mammalian DPP2): will inhibit DPP2 only
N=C(N)c1ccccc1 [Benzamidine]	77		35	inhibits the activity			Activity remaining (%) Gly-Pro ([1]; substance 10 mM, substrate Gly-Pro-AMC): 23%
mercury [Hg]	7	4	5				inhibition of enzyme activity [1, 2]: > 90%; Activity remaining (%) Lys-Ala [1, 6]: 2%
[Cd] [Cd, cadmium]	26	19	6				inhibition of enzyme activity [1, 2]: > 90%; Activity remaining (%) Lys-Ala [1, 6]: 5%
